Reference: patent publication US11918667B2, “Zirconium-based cluster as an antiperspirant and deodorant active” (Colgate-Palmolive Company, priority 2017, dated 2024)

Key:
[1] = cited from earlier work
[2] = pH of zirconium oxychloride / arginine solutions; format: physicochemical; conditions: 1% zirconium oxychloride with varied arginine, 10 g samples, incubated 1 day at 50° C., cooled to room temperature
Experimental: Samples were prepared according to Table 1. Water was added to zirconium oxychloride (ZrOCl2.8H2O, MW 322.25) in a glass jar to yield a clear solution containing 1% zirconium oxychloride. Under stirring, L-arginine was slowly added to prevent clumping of arginine as well as large fluctuations in localized pH values. The solutions were incubated for 1 day at 50° C. Then the solutions were cooled to room temperature. Solid gel was formed in samples with the molar ratio of arginine to zirconium oxychloride of 2-4.
A 100 g batch was prepared according to Table 2. 1% w/w zirconium oxychloride (ZrOCl2.8H2O, MW 322.25) and arginine were mixed in aqueous solution with the molar ratio of arginine to zirconium oxychloride of 1:1.
The zirconium oxychloride cluster was prepared as described in Example 1. The prepared zirconium oxychloride cluster was purified by gel permeability chromatograph (GPC). GPC column was prepared using Bio-Rad P2 gel with 5 μm particle size. Approximately 10 mL of prepared solution was filtered (0.45 μm) and loaded on the column using a HPLC pump at 0.2 mL/min. The mobile phase of the GPC chromatography was deionized water. Elution fractions were collected in intervals and monitored using SEC-RI. […] The pH of the GPC fraction (1160-1300 min) was 4.5. […] 10 g of this fraction was freeze dried to obtain purified powder for subsequent PXRD analysis.

For `[Cl-].[Cl-].[O]=[Zr+2]` [Zr, zirconium oxychloride], the pH of solution ([1]; solution of zirconium oxychloride which is effective as an antiperspirant (background)) is listed as “about 0.8”, the pH value ([1]; zirconium oxychloride alone (general statement)) is listed as under 2 and the pH [2] is listed as 1.39.
